Source: paper PMC4459817, “Vasculotide reduces endothelial permeability and tumor cell extravasation in the absence of binding to or agonistic activation of Tie2” (EMBO Molecular Medicine, 2015)

Columns and labels:
dermal HMVECs = experiment: modified Boyden chamber, tumor cell-conditioned media (TC-CM) stimulated dextran permeability; format: cell-based, human; settings: 20 ng/mL VT or 400 ng/mL Ang1 vs PBS; paired t-test, n = 11 experimental replicates; Fig4A
Description: To investigate this possibility in vitro, we performed modified Boyden chamber assays where we stimulated ECs with tumor cell-conditioned media (TC-CM)—that is, supplement-reduced EC growth media containing all the cytokines naturally secreted by LM2-4^luc, SN12^luc, or HT29^luc cells over 30 hours of hypoxic incubation (1% O2).
Meta-analyses of treatment effects on dextran permeability (A) and tumor cell migration (B), where each datapoint represents the mean of an independent experiment, averaged over 2–3 biological replicates (inserts) per treatment group and normalized internally within that same experiment.
Endothelial cells (ECs) were grown on cell culture inserts with uncoated 8-μm-pore PET filter membranes to 100% confluency. See Supplementary Fig S4 for detailed timelines. […] Permeability assays: A total of 100 μg of FITC-dextran (Sigma FD-20S) was dispensed into the upper chamber media. After 30 min of thrombin stimulation or 4–6 h of TC-CM stimulation, FITC fluorescence (ex/em = 490/520 nm) was measured from a 50 μl sample of the lower chamber media. […] CMPTX fluorescence from migrated TCs was then quantified from 10× microscopy images using a MATLAB (MathWorks, Natick, MA, USA) script; five images (technical replicates) were analyzed per insert. […]

Tie2 in HUVECs = experiment: in vitro Tie2 phosphorylation (immunoprecipitation/immunoblot), HUVEC; format: cell-based, human; settings: Ang1 15–400 ng/mL (0.05–1.43 nM), VT 5–100 ng/mL (0.36–7.1 nM), 10, 15 or 45 min, with or without starvation
Text: Figure 7 In vitro Vasculotide vs. Ang1 stimulations: effects on Tie2 receptor phosphorylation in primary endothelial cells—HUVECs (A-E) and HMVEC-DBls (F) • A–F Primary human umbilical vein endothelial cells (HUVECs) or primary human dermal microvascular endothelial cells (HMVEC-DBls) were stimulated at 80% confluency with Vasculotide (treatment), Ang1 (positive control; ligand of Tie2), PBS (vehicle control), or VEGF (negative control; non-ligand of Tie2). Tie2 was immunoprecipitated from cell lysates and immunoblotted for total Tie2 or phosphotyrosine. […] Source data are available online for this figure. […]
Nodule areas were then […]
unit converted (to μm2) and normalized to total lung section area (including air spaces) using ROI measurements from ImageJ software (NIH).
7. Histological assessment of primary tumor viability and hypoxia
5-μm thick sections of PFA-fixed paraffin-embedded mammary fat pad tumors were subjected to: (i) standard hematoxylin and eosin (H&E) staining to visualize viable vs. necrotic regions; or (ii) standard IHC staining with a goat anti-human carbonic anhydrase IX (CAIX or CA9) antibody (R&D Systems AF2188, 1:80 dilution) plus hematoxylin counterstain to visualize hypoxic regions. […]
IHC staining for CAIX further marks a hypoxic band at the edge of the viability rim bordering the necrotic core – the thickness of this hypoxic edge was averaged over 12 measurements spaced 30o apart (see Fig. 5E).
8. Western immunoblotting for total or phosphorylated Tie2
Cultured ECs and TCs were lysed in RIPA lysis buffer as previously described (Bogdanovic et al, 2006).
Lung/ liver/ kidney tissues, which had been snap-frozen in liquid nitrogen once harvested from mice, were homogenized in RIPA lysis buffer (50 mM Tris-HCl pH 7.5, 150 mM NaCl, 1% Igepal, 0.5% sodium deoxycholate, 0.1% SDS, 1 mM Na3VO4 and protease inhibitors) at 4 °C. […]
Semi-quantitative densitometry analysis of immunoblots was performed using the ChemiGenius2 bioimaging system and GeneSnap/GeneTools software (Syngene). […]

Molecule | transendothelial macromolecular (dextran) permeability in presence of TC-CM (dermal HMVECs) | Tie2 phosphorylation (Tie2 in HUVECs) | Tie2 phosphorylation (Tie2 in HUVECs; listed as VT)
CHHHRHSF [Vasculotide, 4-armed maleimide-functionalized polyethylene glycol (PEG) backbone to link together four cysteine-capped T7 peptides, that is, CHHHRHSF] | reduced transendothelial macromolecular permeability (P < 0.05 | did not lead to increases in the pTie2/Tie2 ratio | did not lead to any appreciable induction of Tie2 phosphorylation
recombinant human Ang1 (rhAng1) (ligand, UniProt Q15389 16-498, looked up, angiopoietin-1, human, recombinant; also called angiopoietin-1; source: bought: R&D Systems (named for the Boyden chamber experiments)) HIGCSNQRRSPENSGRRYNRIQHGQCAYTFILPEHDGNCRESTTDQYNTNALQRDAPHVEPDFSSQKLQHLEHVMENYTQWLQKLENYIVENMKSEMAQIQQNAVQNHTATMLEIGTSLLSQTAEQTRKLTDVETQVLNQTSRLEIQLLENSLSTYKLEKQLLQQTNEILKIHEKNSLLEHKILEMEGKHKEELDTLKEEKENLQGLVTRQTYIIQELEKQLNRATTNNSVLQKQQLELMDTVHNLVNLCTKEGVLLKGGKREEEKPFRDCADVYQAGFNKSGIYTIYINNMPEPKKVFCNMDVNGGGWTVIQHREDGSLDFQRGWKEYKMGFGNPSGEYWLGNEFIFAITSQRQYMLRIELMDWEGNRAYSQYDRFHIGNEKQNYRLYLKGHTGTAGKQSSLILHGADFSTKDADNDNCMCKCALMLTGGWWFDACGPSNLNGMFYTAGQNHGKLNGIKWHYFKGPSYSLRSTTMMIRPLDF | reduced transendothelial macromolecular permeability (P < 0.05 | strongly and consistently activated Tie2 phosphorylation | 
